From patent US20040266814A1, “Imidazopyridine compounds having 5-HT4 receptor agonistic activity and 5-HT3 receptor antagonistic activity” (Pfizer Inc, priority 2003, published 2004)
Where a name gives a salt, the structure may show the parent alone.

Tests used:
rat 5-HT3 receptors = target: T1, rat 5-HT3 receptors (Rattus norvegicus, UniProt P35563); test: Rat 5-HT3 receptor binding ([3H]-BRL 43694, rat cortical membranes); conditions: read-out: r5HT3 Binding Ki
T1 construct: Cerebral cortical tissues were removed from male Sprague-Dawley (SD) rats; from tissue; host or cells: cerebral cortex of male Sprague-Dawley rats (membranes)
T1 sequence (P35563 24-483): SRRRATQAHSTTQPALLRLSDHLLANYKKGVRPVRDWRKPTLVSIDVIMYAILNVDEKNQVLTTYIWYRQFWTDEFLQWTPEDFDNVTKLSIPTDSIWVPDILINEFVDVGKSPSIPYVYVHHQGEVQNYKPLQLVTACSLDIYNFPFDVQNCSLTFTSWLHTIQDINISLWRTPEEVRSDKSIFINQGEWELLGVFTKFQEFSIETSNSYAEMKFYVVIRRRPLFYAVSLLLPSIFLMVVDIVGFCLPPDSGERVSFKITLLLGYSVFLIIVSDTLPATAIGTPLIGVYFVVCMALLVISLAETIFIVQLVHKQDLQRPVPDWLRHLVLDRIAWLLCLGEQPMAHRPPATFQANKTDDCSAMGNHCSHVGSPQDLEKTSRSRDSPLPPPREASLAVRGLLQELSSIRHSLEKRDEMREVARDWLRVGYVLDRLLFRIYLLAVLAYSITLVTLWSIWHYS
Protocol: Cerebral cortical tissues were removed from male Sprague-Dawley (SD) rats (Japan SLC), weighed and placed in 10 volumes of 50 mM ice-cold Tris-HCl (pH 7.5). This was homogenized in a Polytron homogenizer (30 sec at full speed) and subsequently centrifuged at 48,000 g and 4° C. for 15 min. The resulting pellet was resuspended in 50 mM ice-cold Tris-HCl, homegenized and centrifuged again in the same way. The final pellet was resuspended in an appropriate volume of 50 mM Tris-HCl, dispensed into aliquots and stored at −80° C. until use.
The protein concentrations of homogenates were determined by Bradford method or BCA protein method (Pierce) with BSA as a standard.
Affinity of compounds for pig or bovine 5-HT4 and rat 5-HT3 receptors were assessed with using radiolabeled specific ligands, GR 113808 ({1-[2-(methylsulfonyl)ethyl]-4-piperidinyl} [methyl-^3H]-1H-indole-3-carboxylate) and BRL 43694 (1-Methyl-N-(9-[methyl-^3H]-9-azabicyclo [3.3.1]non-3-yl)-1H-indazole-3-caboxamide). Compounds were incubated with 25-100 pM of [^3H]-GR 113808 (Amersham) and 0.6-1 mg protein of pig or bovine striatal membranes suspended in a final volume of 0.8-1 ml of 50 mM Tris-HCl (pH 7.5). Nonspecific binding was determined with 10-50 μM 5-HT. The binding of 0.3 nM [^3H]-BRL 43694 (NEN) was measured using 400 μg protein of rat cortical membranes suspended in a final volume of 500 μl of 50 mM Tris-HCl (pH 7.5)., Nonspecific binding was determined with 10 μM 5-HT.
The plates were incubated at room temperature on a plate shaker for 30 min. The assays were stopped by rapid filtration using a Brandell cell harvester through Wallac-B filters pre-soaked in 0.2% poly(ethylenimine) at 4° C. for 60-90 min. The filters were washed three times with 1 ml of ice-cold 50 mM HEPES, and were dried in a microwave or at room temperature. They were bagged and heated with meltilex scintillant (Wallac) or soaked in BetaplateScint (Wallac). Receptor-bound radioactivity was quantified using Big-spot counter, Betaplate counter (Wallac) or LS counter (Packard).

[1] = target: T2, Human 5-HT4(d) transfected HEK293 cells (Homo sapiens, UniProt Q13639); test: Agonist-induced cAMP elevation in human 5-HT4(d) transfected HEK293 cells; type: cell-based; conditions: for Emax: HEK293, normalized to cAMP produced by 1000 nM serotonin, read-out: cAMP 5HT4 function Emax; for EC50: human 5-HT4(d) transfected HEK293 cells, read-out: cAMP 5HT4 function; for cAMP 5HT4 function, verdict in words: table remark in brackets
T2 construct: expressed in transfected cells; host or cells: HEK293
T2 sequence (Q13639 1-360 isoform Q13639-3): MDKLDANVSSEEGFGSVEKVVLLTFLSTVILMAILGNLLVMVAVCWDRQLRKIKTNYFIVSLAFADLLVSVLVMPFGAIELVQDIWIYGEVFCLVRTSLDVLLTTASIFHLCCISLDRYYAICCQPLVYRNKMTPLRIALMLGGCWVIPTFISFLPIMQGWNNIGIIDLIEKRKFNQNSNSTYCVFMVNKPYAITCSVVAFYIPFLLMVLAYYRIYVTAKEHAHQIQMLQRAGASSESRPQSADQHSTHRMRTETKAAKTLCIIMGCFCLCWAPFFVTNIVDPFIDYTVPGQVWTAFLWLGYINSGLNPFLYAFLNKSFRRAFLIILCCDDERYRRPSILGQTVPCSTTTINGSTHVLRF
Protocol: Agonist-Induced cAMP Elevation in Human 5-HT4(d) Transfected HEK293 Cells
Human 5-HT4(d) transfected HEK293 cells were established in-house. The cells were grown at 37° C. and 5% CO2 in DMEM supplemented with 10% FCS, 20 mM HEPES (pH 7.4), 200 μg/ml hygromycin B (Gibco), 100 units/ml penicillin and 100 μg/ml streptomycin.
The cells were grown to 60-80% confluence. On the previous day before treatment with compounds dialyzed FCS (Gibco) was substituted for normal and the cells were incubated overnight.
Compounds were prepared in 96-well plates (12.5 μl/well). The cells were harvested with PBS/1 mM EDTA, centrifuged and washed with PBS. At the beginning of the assay, cell pellet was resuspended in DMEM supplemented with 20 mM HEPES, 10 μM pargyline (Sigma) and 1 mM 3-isobutyl-1-methylxanthine (Sigma) at the concentration of 1.6×10^5 cells/ml and left for 15 minutes at room temperature. The reaction was initiated by addition of the cells into plates (12.5 μl/well). After incubation for 15 minutes at room temperature, 1% Triton X-100 was added to stop the reaction (25 μl/well) and the plates were left for 30 minutes at room temperature. Homogenous time-resolved fluorescence-based cAMP (Schering) detection was made according to the manufacturer's instruction. ARVOsx multilabel counter (Wallac) was used to measure HTRF (excitation 320 nm, emission 665 nm/620 nm, delay time 50 μs, window time 400 μs).
Data was analyzed based on the ratio of fluorescence intensity of each well at 620 nm and 665 nm followed by cAMP quantification using cAMP standard curve. Enhancement of cAMP production elicited by each compound was normalized to the amount of cAMP produced by 1000 nM serotonin (Sigma).

Human 5-HT4(d) = target: T3, Human 5-HT4(d) (Homo sapiens, UniProt Q13639); test: Human 5-HT4 binding ([3H]-GR113808, SPA); conditions: human 5-HT4(d) HEK293 membranes, read-out: h5HT4 Ki
T3 construct: expressed in transfected cells; host or cells: HEK293
T3 sequence (Q13639 1-360 isoform Q13639-3): as above
Protocol: Human S-HT4(d) transfected HEK293 cells were prepared and grown in-house. The collected cells were suspended in 50 mM HEPES (pH 7.4 at 4° C.) supplemented with protease inhibitor cocktail (Boehringer, 1:1000 dilution) and homogenized using a hand held Polytron PT 1200 disruptor set at full power for 30 sec on ice. The homogenates were centrifuged at 40,000×g at 4° C. for 30 min. The pellets were then resuspended in 50 mM HEPES (pH 7.4 at 4° C.) and centrifuged once more in the same manner. The final pellets were resuspended in an appropriate volume of 50 mM HEPES (pH 7.4 at 25° C.), homogenized, aliquoted and stored at −80° C. until use. An aliquot of membrane fractions was used for protein concentration determination using BCA protein assay kit (PIERCE) and ARVOsx plate reader (Wallac).
For the binding experiments, 25 μl of test compounds were incubated with 25 μl of [^3H]-GR113808 (Amersham, final 0.2 nM) and 150 μl of membrane homogenate and WGA-SPA beads (Amersham) suspension solutions (10 μg protein and 1 mg SPA beads/well) for 60 minutes at room temperature. Nonspecific binding was determined by 1 μM GR113808 (Tocris) at the final concentration. Incubation was terminated by centrifugation at 1000 rpm. Receptor-bound radioactivity was quantified by counting with MicroBeta plate counter (Wallac).

5-HT3 = target: T4, 5-HT3 (Cavia porcellus, UniProt O70212); test: 5-HT3 antagonist assay in guinea-pig longitudinal muscle-myenteric plexus (LMMP)
T4 construct: 5-HT3 antagonist assay in guinea-pig longitudinal muscle-myenteric plexus (LMMP); from tissue; host or cells: guinea-pig longitudinal muscle-myenteric plexus (LMMP)
T4 sequence (O70212 20-490): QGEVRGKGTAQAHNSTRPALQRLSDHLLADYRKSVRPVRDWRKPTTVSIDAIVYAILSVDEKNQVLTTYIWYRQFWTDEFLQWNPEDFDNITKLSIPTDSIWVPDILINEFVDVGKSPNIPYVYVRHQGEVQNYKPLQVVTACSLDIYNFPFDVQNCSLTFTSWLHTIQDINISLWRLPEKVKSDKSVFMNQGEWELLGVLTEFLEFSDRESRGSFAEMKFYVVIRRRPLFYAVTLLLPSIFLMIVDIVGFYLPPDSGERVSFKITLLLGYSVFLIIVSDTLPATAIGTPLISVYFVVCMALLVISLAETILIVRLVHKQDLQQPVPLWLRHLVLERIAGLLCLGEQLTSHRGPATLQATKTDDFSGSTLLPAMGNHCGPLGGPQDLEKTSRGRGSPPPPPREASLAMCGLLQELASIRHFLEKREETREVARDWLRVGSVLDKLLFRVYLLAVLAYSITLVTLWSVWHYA
Protocol: 5-HT3 Functional Assay Method
5-HT3 antagonist assay in guinea-pig longitudinal muscle-myenteric plexus (LMMP): The LMMP tissues were prepared according to the method of A. Butler et al. (Br. J. Pharmacology, 101: 591-598, 1990) and their 5-HT4 receptors were desensitized by performing in 10 μM of 5-methoxytryptamine-containing Krebs solution. Non-cumulative concentration-effect curves (CECs) to 5-HT were constructed across the range […] in half-log unit increments. After 60-minute-equilibration with antagonists, 2nd CECs to 5-HT were constructed until 1 mM.

Ki (rat 5-HT3 receptors) [nM] | melting point [°C] | Emax [1] [%] | EC50 [1] [nM] | Ki (Human 5-HT4(d)) [nM] | LMMP 5HT3 function pA (5-HT3; antagonism of 5-HT) | Kb (5-HT3; read-out: pA2 (5HT3 antagonistic functional activity) (converted)) [nM] | cAMP 5HT4 function, % @1000 ([1]; @1000 [nM], normalized to 1000 nM serotonin) [%] | Structure (SMILES) | 5HT4 receptor agonistic activity [1] | cAMP 5HT4 function, verdict in words [1]
– | 237 | – | – | – | – | – | – | Cc1cn2c(N)c(Cl)cc(C(=O)NCC3CCNCC3)c2n1 (as salt: hydrochloride) [Example 1, 5-AMINO-6-CHLORO-2-METHYL-N-(PIPERIDIN-4-YLMETHYL)-IMIDAZO[1,2-a]PYRIDINE-8-CARBOXAMIDE] | – | –
48 | 153 | 58 | 40 | 109 | 6.6 | 251 | – | CCc1cn2c(N)c(Cl)cc(C(=O)NCC3CCNCC3)c2n1 [Example 2, 5-AMINO-6-CHLORO-2-ETHYL-N-(PIPERIDIN-4-YLMETHYL)IMIDAZO[1,2-a]PYRIDINE-8-CARBOXAMIDE] | – | –

Further lines, the compound ahead of its results:

Structure (SMILES) | Ki (rat 5-HT3 receptors) [nM] | melting point [°C] | Emax [1] [%] | EC50 [1] [nM] | Ki (Human 5-HT4(d)) [nM] | LMMP 5HT3 function pA (5-HT3; antagonism of 5-HT) | Kb (5-HT3; read-out: pA2 (5HT3 antagonistic functional activity) (converted)) [nM] | cAMP 5HT4 function, % @1000 ([1]; @1000 [nM], normalized to 1000 nM serotonin) [%] | 5HT4 receptor agonistic activity [1] | cAMP 5HT4 function, verdict in words [1]
CN(C)C1(CCNC(=O)c2cc(Cl)cn3ccnc23)CCCCC1 | 785 | – | – | – | – | – | – | – | – | –
O=C(NC1CN2CCC1CC2)c1cc(Cl)cn2ccnc12 (centres unmarked) [C] | 6 | – | 11 | 2660 | – | – | – | – | inactive | inactive
Cc1cn2c(N)c(Cl)cc(C(=O)NCC3CCNCC3)c2n1 [Example 1, 5-AMINO-6-CHLORO-2-METHYL-N-(PIPERIDIN-4-YLMETHYL)-IMIDAZO[1,2-a]PYRIDINE-8-CARBOXAMIDE] | 26 | – | 88 | 13.6 | 58 | – | – | – | – | –
CCCCN1CCC(CNC(=O)c2cc(Cl)cn3ccnc23)CC1 [compound B] | 4300 | – | – | – | 1.1 | – | – | 0 | inactive | inactive
